Reference: patent publication US9783509B2, “Six-membered C-N-linked aryl sulfide derivatives and aryl sulfoxide derivatives as pest conrol agents” (BAYER CROPSCIENCE AKTIENGESELLSCHAFT, priority 2013, dated 2017)
Like-named read-outs stand apart in the source and are kept apart here.

Legend:
[1] = system: engorged adult female cattle ticks (Boophilus microplus); assay: Boophilus microplus injection test; format: in vivo; settings: application rate 20 μg/animal, assessed after 7 days
Protocol: Boophilus microplus—Injection Test
Solvent: dimethyl sulphoxide
To produce an appropriate active ingredient formulation, 10 mg of active ingredient are mixed with 0.5 ml of solvent and the concentrate is diluted with solvent to the desired concentration.
1 μl of the active ingredient solution is injected into the abdomen of 5 engorged adult female cattle ticks (Boophilus microplus). The animals are transferred into dishes and kept in a climate-controlled room.
The efficacy is assessed after 7 days by laying of fertile eggs. Eggs which are not visibly fertile are stored in a climate-controlled cabinet until the larvae hatch after about 42 days. An efficacy of 100% means that none of the ticks has laid any fertile eggs; 0% means that all the eggs are fertile.

[2] = system: greenhouse red spider mite (Tetranychus urticae); assay: Tetranychus urticae spray test, OP-resistant (bean leaf discs); format: in vivo; settings: application rate 500 g/ha, after 6 days; for pest or weed control at 500 g/ha: Tetranychus urticae, foliar, 144 h, read-out: efficacy (spider mites killed)
Method in brief: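 Compound dissolved in acetone/DMF and diluted in water with 1000 ppm alkylaryl polyglycol ether emulsifier, then sprayed on bean leaf discs infested with all stages of OP-resistant T. urticae. Mortality in % scored after 6 days (100% = all mites killed).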

[3] = log P by reversed-phase HPLC analogously to OECD Guideline 117; format: physicochemical; settings: for chromatographic logP: reversed-phase C18 HPLC column
Method in brief: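 Retention on reversed-phase C18 HPLC (LC-MS), acidic runs at pH 2.7 with formic acid or trifluoroacetic acid/acetonitrile gradients, neutral runs at pH 7.8 with 0.001 molar ammonium hydrogencarbonate/acetonitrile. log P obtained by linear interpolation of retention times against unbranched alkan-2-ones (C3–C16) of known log P.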

[4] = system: southern root-knot nematode (Meloidogyne incognita); assay: Meloidogyne incognita test (sand, lettuce, acetone solvent, 14 days); format: in vivo; settings: application rate 20 ppm, after 14 days; for pest or weed control at 20 ppm: Meloidogyne incognita, 336 h, read-out: nematicidal efficacy (formation of galls)
Protocol: Meloidogyne incognita Test
Solvent: 125.0 parts by weight of acetone
To produce an appropriate active ingredient formulation, 1 part by weight of active ingredient is mixed with the stated amount of solvent and the concentrate is diluted with water to the desired concentration.
Vessels are filled with sand, active ingredient solution, an egg/larvae suspension of the southern root-knot nematode (Meloidogyne incognita) and lettuce seeds. The lettuce seeds germinate and the plants develop. The galls develop on the roots
After 14 days, the nematicidal efficacy in % is determined by the formation of galls. 100% means that no galls were found; 0% means that the number of galls on the treated plants corresponds to the untreated control.

[5] = [a] acidic range, pH 2.7, formic acid (or trifluoroacetic acid)/acetonitrile
[6] = [b] neutral range, pH 7.8, ammonium hydrogencarbonate/acetonitrile
[7] = pH 2.7, running text, [a] acidic range, pH 2.7, read-out: log P[a]
[8] = pH 2.7, table column, [a] acidic range, pH 2.7, formic acid (or trifluoroacetic acid)/acetonitrile, read-out: LogP[a]

| Compound | efficacy (no fertile eggs laid) [1] [%] | efficacy (spider mites killed) [2] [%] | LogP[a] [3, 5] | nematicidal efficacy (formation of galls) [4] [%] | LogP[b] [3, 6] | pest or weed control at 20 ppm [4] [%] | pest or weed control at 500 g/ha [2] [%] | chromatographic logP [3, 7] | chromatographic logP [3, 8] | chromatographic logP ([3]; pH 7.8, running text, [b] neutral range, pH 7.8, read-out: log P[b]) | chromatographic logP ([3]; pH 7.8, table column, [b] neutral range, pH 7.8, ammonium hydrogencarbonate/acetonitrile, read-out: LogP[b]) |
| --- | --- | --- | --- | --- | --- | --- | --- | --- | --- | --- | --- |
| Cc1cc(C)c([S+]([O-])CC(F)(F)F)cc1-n1ncc(=O)n(C)c1=O (racemic) [compound 4] | 100 | 100 | 2.01 | – | – | – | – | – | – | – | – |
| Cc1cc(C)c([S+]([O-])CC(F)(F)F)cc1-n1ncc(=O)n(CC(F)(F)F)c1=O (racemic) [compound 6] | 100 | 90 | 2.73 | – | – | – | – | – | – | – | – |
| Cc1cc(F)c(-n2ncc(=O)n(CC(F)(F)F)c2=O)cc1[S+]([O-])CC(F)(F)F (racemic) [compound 9] | 100 | 100 | 2.65 | 100 | – | – | – | – | – | – | – |
| O=c1cnn(-c2cc([S+]([O-])CC(F)(F)F)c(Cl)cc2Cl)c(=O)n1CC(F)(F)F (racemic) [compound 11] | 100 | 100 | 3.21 | 90 | – | – | – | – | – | – | – |
| CCn1c(=O)cnn(-c2cc([S+]([O-])CC(F)(F)F)c(C)cc2F)c1=O (racemic) [compound 21] | 100 | 100 | 2.24 | 100 | 2.22 | – | – | – | – | – | – |
| Cc1cc(F)c(-n2ncc(=O)n(CC(C)C)c2=O)cc1[S+]([O-])CC(F)(F)F (racemic) [compound 22] | 100 | 100 | 2.92 | 90 | 2.9 | – | – | – | – | – | – |
| Cc1cc(F)c(-n2ncc(=O)n(C)c2=O)cc1SCC(F)(F)F [Ex. No. 3, 2-{2-Fluoro-4-methyl-5-[(2,2,2-trifluoroethyl)sulphanyl]phenyl}-4-methyl-1,2,4-triazine-3,5(2H,4H)-dione] | 100 | – | – | – | – | 90 | 100 | 2.94 | 2.94 | – | – |
| Cc1cc(F)c(-n2ccc(=O)n(C)c2=O)cc1[S+]([O-])CC(F)(F)F (centres unmarked) [Ex. No. 54, 1-{2-Fluoro-4-methyl-5-[(2,2,2-trifluoroethyl)sulphinyl]phenyl}-3-methylpyrimidine-2,4(1H,3H)-dione] | 100 | – | – | – | – | 100 | 100 | 1.66 | 1.61 | 1.61 | 1.66 |
| CCn1c(=O)cnn(-c2cc(SCC(F)(F)F)c(C)cc2F)c1=O [compound 19] | 100 | 100 | 3.31 | 90 | 3.27 | – | – | – | – | – | – |
| Cc1cc(F)c(-n2ncc(=O)n(CC(C)C)c2=O)cc1SCC(F)(F)F [compound 20] | 100 | 100 | 4.03 | 90 | 4 | – | – | – | – | – | – |
| Cc1ccc(-n2ccc(=O)n(CC#N)c2=O)cc1[S+]([O-])CC(F)(F)F (centres unmarked) [compound 100] | – | 90 | 1.63 | 100 | 1.62 | – | – | – | – | – | – |
